In publication PMC5123592 (Nature chemistry, 2016):

How the values were obtained:
ZMPSTE24 [1] = molecular target: T1, ZMPSTE24 (Homo sapiens, UniProt O75844); assay: native mass spectrometry; type: binding; details: 15 μM drug, equimolar ZMPSTE24, C8E4
T1 sequence (O75844 1-475): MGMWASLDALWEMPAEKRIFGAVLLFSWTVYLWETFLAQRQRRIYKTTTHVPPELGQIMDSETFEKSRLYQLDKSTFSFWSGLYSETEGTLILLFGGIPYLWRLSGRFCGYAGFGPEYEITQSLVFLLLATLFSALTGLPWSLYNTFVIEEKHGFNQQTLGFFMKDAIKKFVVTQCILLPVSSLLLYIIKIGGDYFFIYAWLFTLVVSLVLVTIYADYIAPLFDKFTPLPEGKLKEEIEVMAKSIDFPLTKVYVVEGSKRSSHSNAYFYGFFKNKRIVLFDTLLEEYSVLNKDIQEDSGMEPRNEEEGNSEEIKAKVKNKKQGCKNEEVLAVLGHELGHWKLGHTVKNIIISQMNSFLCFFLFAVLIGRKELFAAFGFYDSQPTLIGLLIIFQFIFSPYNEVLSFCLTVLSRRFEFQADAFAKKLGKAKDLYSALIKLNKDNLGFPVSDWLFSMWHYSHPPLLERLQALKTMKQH

ZMPSTE24 [2] = molecular target: T1, ZMPSTE24; assay: native mass spectrometry titration; type: binding

| Kd (ZMPSTE24 [2]) [µM] | SMILES | binding observed at 15 μM (ZMPSTE24 [1]) |
| --- | --- | --- |
| – | CC(C)CN(C[C@@H](O)[C@H](Cc1ccccc1)NC(=O)O[C@H]1CCOC1)S(=O)(=O)c1ccc(N)cc1 [amprenavir] | binding of amprenavir and ritonavir were observed, albeit in lower amounts |
| 25 ± 1.2 | Cc1cccc(C)c1OCC(=O)N[C@@H](Cc1ccccc1)[C@@H](O)C[C@H](Cc1ccccc1)NC(=O)[C@H](C(C)C)N1CCCNC1=O [lopinavir] | – |
